These results are taken from patent US20110033393A1, “Hydrazone Compounds and Their Use” (priority 2009, published 2011).

In this assay the test system is isolated rat primary islets. The experiment in a line: Insulin release from isolated primary rat islets. In kind it is cell-based. How it is done: Isolation of Rat Islets: Islets were isolated from 226-250 g male Sprague Dawley rats from Taconic. The animals were initially anesthetized with CO2 gas and euthanized by cervical dislocation. The pancreatic duct was injected with 15 to 30 ml of Collagenase P (Roche Diagnostics catalog #1 249 002) at 0.6 mg/ml in Hanks' Balanced Salt Solution (HBSS) (Gibco Catalog #14025-076) supplemented with BSA (Sigma, catalog #A 7409) to a final concentration of 0.1%. The pancreas was excised and placed into a 20 ml scintillation vial, incubated in a water bath at 37° C. for 16 to 18 minutes and then shaken briskly for at least 60 seconds. The digested tissue was poured into a 50 ml conical tube (1 per tube) containing cold Hank's Buffer supplemented with BSA (as above) and washed 7-10 times. […]
Measurement of Insulin Release: Insulin release measurements were carried out in Krebs-Ringer bicarbonate buffer (118.4 mmol/liter NaCl, 4.69 mmol/liter KCl, 1.2 mmol/liter MgSO4, 1.18 mmol/liter KH2PO4, 2.4 mmol/liter CaCl2, and 20 mmol/liter NaHCO3 (equilibrated with 95% O2 and 5% CO2, pH 7.4) supplemented with BSA to a final concentration of 0.1%). […] Insulin release in the supernatant was assessed using a commercially available ELISA kit (Mercodia-Cat. #10-1124-10) according to the manufacturer's protocol. The data were expressed as pg of insulin per number of cells. […]

`Cc1cc(/C=N/NC(=O)C2CC2c2ccccc2)cc2cccnc12` (racemic) [Example 10, trans-N′-((8-Methylquinolin-6-yl)methylene)-2-phenylcyclopropanecarbohydrazide]: the insulin secretion entry (3 mM glucose, compound up to 10 μM) is “insulin secretion is not observed” and the insulin secretion result (12 mM glucose, compared to the DMSO control) was “significant dose-dependent increase in insulin secretion”.
